Assay results from ChEMBL document CHEMBL1140181, “Tyrianthinic acids from Ipomoea tyrianthina and their antimycobacterial activity, cytotoxicity, and effects on the central nervous system” (2008).
In brackets after ≈: the same amount, converted by molar mass. Activity calls are given as the source filed them. The rule behind the calls is not given here.

What was measured:
[1] = tested on: Mycobacterium tuberculosis; experiment: Antimicrobial activity against Mycobacterium tuberculosis H37Rv ATTC 27294 by alamar blue assay; assay type: functional
KB = experiment: Cytotoxicity against human KB cells; assay type: functional; settings: read-out: ED50 (the source's name)
HCT-15 = experiment: Cytotoxicity against human HCT15 cells; assay type: functional; settings: read-out: ED50 (the source's name)
[2] = Cytotoxicity against human UISO-SQC-1 cells; assay type: functional; settings: UISO-SQC1, read-out: ED50 (the source's name)
OVCAR-5 = experiment: Cytotoxicity against human OVCAR5 cells; assay type: functional; settings: read-out: ED50 (the source's name)
Mus musculus [3] = experiment: Anticonvulsant activity in mouse assessed as effect on pentobarbital-induced increase in hypnosis latency at 10 mg/kg, ip; assay type: functional, organism-based; parameters: dose 10 mg/kg
Mus musculus [4] = experiment: Anticonvulsant activity in mouse assessed as protection of pentylenetetrazole-induced seizure at 40 mg/kg, ip; assay type: functional; settings: route intraperitoneal
Mus musculus [5] = species on record: Mus musculus; experiment: Increase in GABA level in mouse brain at 4 ug/mL after 90 seconds; assay type: functional, organism-based

Row | Compound | MIC [1] [µg/mL] | EC50 (KB) [µg/mL] | EC50 (HCT-15) [µg/mL] | EC50 [2] [µg/mL] | EC50 (OVCAR-5) [µg/mL] | Activity (Mus musculus [3]) | Activity (Mus musculus [4]) [%] | Activity (Mus musculus [5])
1 | CCCCCC1CCCCCCCCCC(=O)O[C@H]2[C@@H](OC(=O)CC)[C@H](O[C@H]3[C@H](O[C@H]4[C@H](O1)O[C@H](C)[C@H](O)[C@H]4O)O[C@H](CO)[C@H](O)[C@H]3O)O[C@H](C)[C@H]2O[C@H]1O[C@H](C)[C@H](O)[C@@H](O)[C@H]1O (stereo not given in full) [TYRIANTHIN 9] | 25 (≈ 27.4 µM) | 2.5 (≈ 2.74 µM) | > 5 | > 5 | > 5 | Active | 70 | Active
2 | C/C=C(\C)C(=O)O[C@H]1[C@@H]2O[C@H]3[C@H](O[C@H]4[C@H](OC(CCCCC)CCCCCCCCCC(=O)O[C@@H]1[C@H](O[C@H]1O[C@H](C)[C@H](O)[C@@H](O)[C@H]1O)[C@@H](C)O2)O[C@H](C)[C@H](O)[C@H]4O)O[C@H](CO)[C@H](O)[C@H]3O (stereo not given in full) [TYRIANTHIN 8] | 25 (≈ 26.7 µM) | 2.2 (≈ 2.35 µM) | > 5 | > 5 | > 5 | Active | 70 | Active
3 | C/C=C(\C)C(=O)O[C@H]1[C@H](O)[C@@H](O)[C@H](O[C@@H]2[C@@H](O)[C@@H](OC(=O)C(C)CC)[C@H](O[C@H]3[C@H](O[C@H]4[C@H](O[C@H](CCCCC)CCCCCCCCCC(=O)O)O[C@H](C)[C@@H](O)[C@@H]4O)O[C@H](CO)[C@@H](O)[C@@H]3O)O[C@H]2C)O[C@@H]1C (stereo not given in full) [THYRIANTHINIC ACID II] | 25 (≈ 24.1 µM) | 2.8 (≈ 2.69 µM) | > 5 | > 5 | > 5 | Active | 70 | 
4 | CCCCC[C@H](CCCCCCCCCC(=O)O)O[C@@H]1O[C@H](C)[C@@H](O)[C@H](O)[C@H]1O[C@@H]1O[C@H](CO)[C@@H](O)[C@H](O)[C@H]1O[C@@H]1O[C@@H](C)[C@H](O[C@@H]2O[C@H](C)[C@@H](OC(=O)C(C)C(C)O)[C@H](O)[C@H]2O)[C@@H](O)[C@H]1OC(=O)C(C)CC (stereo not given in full) [THYRIANTHINIC ACID I] | 25 (≈ 23.6 µM) | 2.6 (≈ 2.46 µM) | > 5 | > 5 | > 5 | Active | 70 | 
